Results on one compound are retold here after patent US20100048634A1, “METHOD FOR TREATING APATHY SYNDROME” (priority 2005, published 2010).

Assay type in all cases: in vivo, human
Test [1] concerns post-stroke patients. The test can be described thus: Controlled clinical trial against placebo, Apathy Evaluation Scale. The procedure:
Apathy Evaluation Scale (AES) is used as a measure of apathy severity. Items and factor structure of AES are listed in Marin, et al. (Psychiatry Res. 1991; 38(2):143-62). The assessment, the impairment, as well as and the need of recovery of apathy and cognitive function after stroke are illustrated by Robert G. Robinson “The Clinical Neuropsychiatry of Stroke”, 1998, Cambridge University Press, pages 143, 222-225 and 292-293.
(§1) In this trial, nefiracetam was administered orally to 103 post-stroke patients, who all have some degree of depression, for up to twelve weeks after the vascular event. Concurrently, 56 patients received placebo (placebo group). Of the 103 post-stroke patients treated with nefiracetam, 55 received 600 mg daily (600 mg group), and 48 received 900 mg daily (900 mg group). The three groups of patients were followed for up to 12 weeks, and evaluated at the end of week 4, the end of week 8, and the end of week 12, by measuring the Apathy Evaluation Scale (a symptom scale for measuring apathy), and by measuring SDMT (for measuring cognitive function).

Test [2] concerns post-stroke patients. The test can be described thus: Controlled clinical trial against placebo, symbol digit modality test (SDMT), cognitive function. Particulars: for change in cognitive function (SDMT): at 4 weeks, placebo 3.2; for average improvement in cognitive function (SDMT): last visit, placebo 4.2; for improvement in the SDMT scale: patients with cortical strokes, week 12, placebo 2.7.
From the text: Cognitive function can be measured using a tool called the symbol digit modality test (SDMT). In this test, patients have a legend which links each digit to a specific graphical, non-text symbol. The patients have a pre-specified, fixed period of time to match, in writing, as many digits to a list of symbols as possible. The number of correctly matched digits to symbols provides a measure of a range of cognitive functions, including executive function, attention, memory, and motor function (Joy, et.al. Arch Clin Neuropsychol. 19:759-67, 2004; Joy, et.al. Clin Neuropsychol. 17:182-94; 2003)
as §1

In test [3] the test system is post-stroke patients having moderate to severe depression. Kind of test: Apathy Scale (AS) in post-stroke patients having moderate to severe depression. Particulars: 600 or 900 mg/day oral, 12 weeks, especially high dose. The source says: Apathy Scale (AS) is an abbreviated version of the AES. Items and scoring of Papthy Scale can be found, for example, at Starkstein, et al., J Neuropsychiatry Clin. Neurosciences, 4: 134-139 (1992).
(§2) In 151 post-stroke patients having moderate to severe depression, the intervention-free data of Apathy Scale (AS), as a valid measure of apathy, and of Hamilton Rating Scale of Depression (HAM-D) and Beck Depression Inventory (BDI), as valid measures of depression, were collected and analyzed using the method of confirmatory factor analysis. HAM-D and BDI are fully validated and are widely used measures of the severity of depression. HAM-D (Hamilton, J Neurol. Neurosurg. Psychiatry. 23:56-62, 1960) is rated by a professional. BDI (Arch Gen Psychiatry. 4:561-571, 1961) is rated by a patient.
(§3) The 151 patients, who were evaluated at least once after treatment, included the 103 patients studied in Example 1. The 151 patients were divided in three groups each orally receiving placebo (51 patients) or nefiracetam at 600 mg/day (54 patients) or nefiracetam at 900 mg/day (46 patients).
(§4) The data at the end of 12 weeks were analyzed and summarized as follows: […]

Test [4] has the same test system. Kind of test: Hamilton Rating Scale of Depression (HAM-D) in post-stroke patients having moderate to severe depression. Particulars: 600 or 900 mg/day oral; 12 weeks; consistent across various severity of baseline apathy.
From the text: as §2, §3, §4

Setting [5] is: 600 and 900 mg daily oral, up to 12 weeks.

Each structure is given as a SMILES string.

As to `Cc1cccc(C)c1NC(=O)CN1CCCC1=O` [nefiracetam], the “improvement in apathy (Apathy Evaluation Scale)” value with post-stroke patients [1] (600 mg daily oral, at 4 weeks, placebo 1.4) is 1.9 point; with post-stroke patients [1] (600 mg daily oral, cortical strokes and significant baseline apathy (greater than 18), last visit, placebo 5.4), 9.4 points; in the test on post-stroke patients [1] (900 mg daily oral, at 4 weeks, placebo 1.4), 1.9 point; in the test on post-stroke patients [1] (900 mg daily oral, cortical strokes and significant baseline apathy (greater than 18), last visit, placebo 5.4) it was 11.7 points. In addition, the “average improvement in apathy (Apathy Evaluation Scale)” value stood at 3.4 in the test on post-stroke patients [1] (600 mg daily oral, cortical stroke patients, last visit carried forward, placebo 1.0); 2.1 points in the test on post-stroke patients [1] (600 mg daily oral, last visit (12 weeks), placebo 1.4); 1.3 points in the test on post-stroke patients [1] (600 mg daily oral, patients treated within 28 days of the stroke, placebo 0.6); 5.2 points with post-stroke patients [1] (900 mg daily oral, cortical stroke patients, last visit carried forward, placebo 1.0); 3.4 points with post-stroke patients [1] (900 mg daily oral, last visit (12 weeks), placebo 1.4); 6.1 points in the test on post-stroke patients [1] (900 mg daily oral, patients treated within 28 days of the stroke, placebo 0.6). For the same compound, in the test with post-stroke patients [1] (setting [5]), the “change in apathy syndrome in comparison to the placebo group (in words)” value is “dose-dependent and time-dependent change in apathy syndrome”. The “change in cognitive function (SDMT)” value in the test on post-stroke patients [2] (600 mg daily oral) worked out at 4.1 point; with post-stroke patients [2] (900 mg daily oral) it was 4.4 point. For the same compound, the figures for the “average improvement in cognitive function (SDMT)” value with post-stroke patients [2] (600 mg daily oral) and in the test on post-stroke patients [2] (900 mg daily oral) were 5.7 points and 6.6 points, respectively. The “improvement in the SDMT scale” value is listed as 7 points with post-stroke patients [2] (600 mg daily oral) and 14.2 points with post-stroke patients [2] (900 mg daily oral). Also, in the test on post-stroke patients [2] (setting [5]), the “improvements in cognitive function as measured by the SDMT (in words)” value was “dose-dependent and time-dependent improvements in cognitive function”. The “reduction in apathy measured by the Apathy Scale versus placebo (in words)” value in test [3] (consistent across moderate to severe and severe depression) is “more reduction in apathy than did patients on placebo”; in test [3] (consistent across various severity of baseline apathy), “more reduction in apathy than did patients on placebo”. For the same compound, the “reduction in depression measured by HAM-D versus placebo (in words)” value in test [4] is listed as “patients on placebo showed slightly more reduction in depression than did patients on active treatment”.
